Source: patent US12492173B2, “Herbicidal substituted N-tetrazolyl aryl carboxamides” (Bayer Aktiengesellschaft, priority 2019, dated 2025)

How the values were obtained:
Assay type in all cases: in vivo
[1] = test system: Abutilon theophrasti; test: Pre-emergence herbicidal action, ABUTH; design: key to Herbicidal action against ABUTH: % activity: 100 = plants have died, 0 = like control plants; details: for herbicidal action ABUTH / herbicidal activity ABUTH: dosage 320 g/ha; for herbicidal activity ABUTH: scored visually after 3 weeks vs untreated controls (100% = plants have died); for Herbicidal action against ABUTH: comparative experiment, 80 g of a.i./ha
Outline: (§1)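 Herbicidal activity is expressed in percent, scored by eye after a 3-week greenhouse period, with 0% matching untreated plants and 100% meaning death. Compounds, as wettable powders or emulsion concentrates, are applied pre-emergence to the covering soil.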

[2] = test system: Abutilon theophrasti; test: Post-emergence herbicidal action, ABUTH; design: key: % herbicidal action vs untreated; 100 = plants died, 0 = like control
Outline: (§2)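 Greenhouse post-emergence test: weeds sown in sandy loam were sprayed once at one leaf, 2 to 3 weeks from sowing, with aqueous WP or EC preparations carrying 0.2% wetting agent. Effect is scored visually after about 3 weeks.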

[3] = test system: Alopecurus myosuroides; test: Post-emergence herbicidal action, ALOMY; design: key: % herbicidal action vs untreated; 100 = plants died, 0 = like control; details: for Herbicidal action against ALOMY: comparative experiment, 20 g of a.i./ha
Outline: as §2

[4] = test system: Echinochloa crus-galli; test: Post-emergence herbicidal action, ECHCG; design: key: % herbicidal action vs untreated; 100 = plants died, 0 = like control; details: for Herbicidal action against ECHCG: comparative experiment, 20 g of a.i./ha
Outline: as §2

[5] = test system: Veronica persica; test: Post-emergence herbicidal action, VERPE; design: key: % herbicidal action vs untreated; 100 = plants died, 0 = like control; details: for Herbicidal action against VERPE: comparative experiment, 20 g of a.i./ha
Outline: as §2

[6] = test system: Viola tricolor; test: Post-emergence herbicidal action, VIOTR; design: key: % herbicidal action vs untreated; 100 = plants died, 0 = like control; details: for Herbicidal action against VIOTR: comparative experiment, 20 g of a.i./ha
Outline: as §2

[7] = test system: Pharbitis purpurea; test: Pre-emergence herbicidal action, PHBPU; details: dosage 320 g/ha, scored visually after 3 weeks vs untreated controls (100% = plants have died)
Outline: as §1

| Compound | herbicidal action ABUTH [1] | herbicidal action ABUTH ([2]; Dosage 80 g/ha) | herbicidal action ECHCG ([4]; Dosage 80 g/ha) | herbicidal action VIOTR ([6]; Dosage 80 g/ha) | herbicidal action VERPE ([5]; Dosage 80 g/ha) | herbicidal activity ABUTH [1] | other results |
| --- | --- | --- | --- | --- | --- | --- | --- |
| CSCc1c(Cl)ccc(C(=O)Nc2nnnn2C)c1Cl [Example 1-559] | 100% |  |  |  |  |  | herbicidal action ABUTH ([2]; post-emergence, dosage 80 g/ha): 90%; herbicidal action ALOMY ([3]; post-emergence, dosage 80 g/ha): 90%; herbicidal action ECHCG ([4]; post-emergence, dosage 80 g/ha): 100%; herbicidal action VERPE ([5]; post-emergence, dosage 80 g/ha): 100%; herbicidal action VIOTR ([6]; post-emergence, dosage 80 g/ha): 100% |
| CCSCc1c(C(F)(F)F)ccc(C(=O)Nc2nnnn2CC)c1C [Example 2-86] | 100% |  |  |  |  |  | herbicidal action ABUTH ([2]; post-emergence, dosage 80 g/ha): 80%; herbicidal action ALOMY ([3]; post-emergence, dosage 80 g/ha): 90%; herbicidal action ECHCG ([4]; post-emergence, dosage 80 g/ha): 90%; herbicidal action VERPE ([5]; post-emergence, dosage 80 g/ha): 90%; herbicidal action VIOTR ([6]; post-emergence, dosage 80 g/ha): 100% |
| CCCn1nnnc1NC(=O)c1ccc(C(F)(F)F)c(C[S+](C)[O-])c1OC (stereo not shown) [Example 3-135] | 100% | 100 | 100 | 100 |  |  |  |
| CCCn1nnnc1NC(=O)c1ccc(S(C)(=O)=O)c(CS(C)(=O)=O)c1C [Example 3-39] | 100% | 90 | 90 | 100 | 100 |  |  |
| CCCn1nnnc1NC(=O)c1ccc(C(F)F)c(CS(=O)(=O)CC)c1Cl [Example 3-325] |  | 100 | 100 | 100 |  | 100% | herbicidal activity PHBPU [7]: 100% |
| CCn1nnnc1NC(=O)c1ccc(C(F)F)c(CSC)c1SC [Example 2-170] |  | 100 | 100 | 100 | 90 | 100% | herbicidal action ALOMY ([3]; Dosage 80 g/ha): 80 |
| CCS(=O)(=O)c1c(C(F)(F)F)ccc(C(=O)Nc2nnnn2C)c1Br [Example V-13, 2-bromo-3-(ethylsulfonyl)-N-(1-methyl-1-1H-tetrazol-5-yl)-4-(trifluoromethyl)benzamide, reference compound] |  |  |  |  |  |  | Herbicidal action against ABUTH [1]: 0; Herbicidal action against ALOMY ([3]; post-emergence): 0; Herbicidal action against ECHCG ([4]; post-emergence): 0; Herbicidal action against VERPE ([5]; post-emergence): 0; Herbicidal action against VIOTR ([6]; post-emergence): 0 |
| CCS(=O)(=O)Cc1c(C(F)(F)F)ccc(C(=O)Nc2nnnn2C)c1Br [Example 1-385] |  |  |  |  |  | 100% | Herbicidal action against ABUTH [1]: 100; herbicidal action ABUTH ([2]; post-emergence, dosage 80 g/ha): 100%; Herbicidal action against ALOMY ([3]; post-emergence): 80; herbicidal action ALOMY ([3]; post-emergence, dosage 80 g/ha): 90%; Herbicidal action against ECHCG ([4]; post-emergence): 90; herbicidal action ECHCG ([4]; post-emergence, dosage 80 g/ha): 90%; Herbicidal action against VERPE ([5]; post-emergence): 100; herbicidal action VERPE ([5]; post-emergence, dosage 80 g/ha): 100%; Herbicidal action against VIOTR ([6]; post-emergence): 100; herbicidal action VIOTR ([6]; post-emergence, dosage 80 g/ha): 100% |
| Cc1ccc(C(=O)Nc2nnnn2C)c(Cl)c1C[S+](C)[O-] (racemic) [Example 1-288] | 90% | 90 | 90 | 100 | 100 |  | herbicidal action ALOMY ([3]; Dosage 80 g/ha): 80 |
| CCCn1nnnc1NC(=O)c1ccc(C(F)F)c(CS(C)(=O)=O)c1SC [Example 3-172] |  | 100 | 90 | 90 | 100 | 100% | herbicidal activity PHBPU [7]: 80% |
| COc1c(C(=O)Nc2nnnn2C)ccc(C(F)(F)F)c1C[S+](C)[O-] (stereo not shown) [Example 1-135] | 100% | 90 | 90 | 90 | 100 |  |  |
| CCCn1nnnc1NC(=O)c1ccc(C(F)(F)F)c(CS(C)(=O)=O)c1Cl [Example 3-298] |  | 80 | 90 | 100 | 100 | 100% | herbicidal activity PHBPU [7]: 90% |
| CCCn1nnnc1NC(=O)c1ccc(C(F)(F)F)c(CS(=O)(=O)CC)c1Cl [Example 3-301] | 100% | 80 | 90 | 100 | 80 |  |  |
| CCn1nnnc1NC(=O)c1ccc(C(F)(F)F)c(CS(=O)(=O)CC)c1C [Example 2-88] | 100% | 80 | 90 | 100 | 100 |  | herbicidal action ALOMY ([3]; Dosage 80 g/ha): 90 |
| CCn1nnnc1NC(=O)c1ccc(C(F)F)c(C[S+](C)[O-])c1C (stereo not shown) [Example 2-108] | 100% | 100 | 100 | 100 | 100 |  | herbicidal action ALOMY ([3]; Dosage 80 g/ha): 80 |
